Assay results taken from ChEMBL document CHEMBL1152042, “Polyhydroxylated 3-(N-phenyl) carbamoyl-2-iminochromene derivatives as potent inhibitors of tyrosine kinase p60c-src” (Bioorg Med Chem Lett, 1995).

Columns and labels:
[1] = biological target: Tyrosine-protein kinase Lyn (Homo sapiens, UniProt P07948); test: Inhibitory activity against p56 Lyn tyrosine kinase
[2] = biological target: Tyrosine-protein kinase Fyn (Homo sapiens, UniProt P06241); test: Inhibitory activity against p55 Fyn tyrosine kinase
Tyrosine-protein kinase Fyn, sequence (P06241 whole entry): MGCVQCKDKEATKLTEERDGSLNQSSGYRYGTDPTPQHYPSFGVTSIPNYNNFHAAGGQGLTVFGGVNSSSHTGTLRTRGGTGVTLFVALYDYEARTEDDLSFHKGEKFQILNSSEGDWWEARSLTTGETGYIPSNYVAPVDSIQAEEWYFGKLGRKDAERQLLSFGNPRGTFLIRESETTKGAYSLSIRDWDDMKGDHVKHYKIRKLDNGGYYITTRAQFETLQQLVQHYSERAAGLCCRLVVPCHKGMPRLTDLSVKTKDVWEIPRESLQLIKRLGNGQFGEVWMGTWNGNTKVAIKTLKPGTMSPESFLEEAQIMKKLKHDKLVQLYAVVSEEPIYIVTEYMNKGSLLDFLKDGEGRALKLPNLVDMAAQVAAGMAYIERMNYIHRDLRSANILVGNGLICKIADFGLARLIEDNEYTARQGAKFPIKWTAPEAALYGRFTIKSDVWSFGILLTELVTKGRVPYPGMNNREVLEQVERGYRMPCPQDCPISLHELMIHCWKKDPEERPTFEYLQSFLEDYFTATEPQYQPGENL

[3] = biological target: Proto-oncogene tyrosine-protein kinase Src (Homo sapiens, UniProt P12931); test: Inhibitory activity against p60 c-Src tyrosine kinase
Proto-oncogene tyrosine-protein kinase Src, sequence (P12931 2-536 limits assumed): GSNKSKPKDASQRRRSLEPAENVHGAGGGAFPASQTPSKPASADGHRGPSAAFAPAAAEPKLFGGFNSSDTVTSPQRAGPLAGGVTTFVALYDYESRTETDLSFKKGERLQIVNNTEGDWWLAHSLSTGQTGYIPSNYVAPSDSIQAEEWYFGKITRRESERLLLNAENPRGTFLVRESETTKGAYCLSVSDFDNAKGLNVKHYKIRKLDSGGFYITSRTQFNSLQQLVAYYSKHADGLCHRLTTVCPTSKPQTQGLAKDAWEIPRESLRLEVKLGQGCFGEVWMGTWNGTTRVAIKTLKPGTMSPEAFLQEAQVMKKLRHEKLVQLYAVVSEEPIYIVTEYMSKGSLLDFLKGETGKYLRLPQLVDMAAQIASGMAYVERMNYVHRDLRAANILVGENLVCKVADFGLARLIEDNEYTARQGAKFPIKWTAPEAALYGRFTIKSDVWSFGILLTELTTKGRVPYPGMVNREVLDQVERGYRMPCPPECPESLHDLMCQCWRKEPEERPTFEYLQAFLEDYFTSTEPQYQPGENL

[4] = biological target: Tyrosine-protein kinase Lck (Homo sapiens, UniProt P06239); test: Inhibitory activity against p56 Lck tyrosine kinase
Tyrosine-protein kinase Lck, sequence (P06239 whole entry): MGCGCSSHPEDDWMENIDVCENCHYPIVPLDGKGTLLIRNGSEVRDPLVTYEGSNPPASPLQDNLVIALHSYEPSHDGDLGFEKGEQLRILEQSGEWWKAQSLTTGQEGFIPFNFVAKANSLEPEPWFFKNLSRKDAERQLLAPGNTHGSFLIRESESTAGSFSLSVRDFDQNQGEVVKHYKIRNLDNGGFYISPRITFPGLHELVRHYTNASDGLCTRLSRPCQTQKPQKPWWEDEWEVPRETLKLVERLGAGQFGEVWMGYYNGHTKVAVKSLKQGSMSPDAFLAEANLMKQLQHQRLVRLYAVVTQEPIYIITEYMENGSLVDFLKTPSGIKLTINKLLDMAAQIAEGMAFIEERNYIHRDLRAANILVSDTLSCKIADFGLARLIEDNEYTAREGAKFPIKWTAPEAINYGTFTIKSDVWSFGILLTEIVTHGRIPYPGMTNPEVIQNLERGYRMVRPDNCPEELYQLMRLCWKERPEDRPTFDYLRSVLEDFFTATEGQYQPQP

Tyrosine-protein kinase Lyn, sequence (P07948 whole entry): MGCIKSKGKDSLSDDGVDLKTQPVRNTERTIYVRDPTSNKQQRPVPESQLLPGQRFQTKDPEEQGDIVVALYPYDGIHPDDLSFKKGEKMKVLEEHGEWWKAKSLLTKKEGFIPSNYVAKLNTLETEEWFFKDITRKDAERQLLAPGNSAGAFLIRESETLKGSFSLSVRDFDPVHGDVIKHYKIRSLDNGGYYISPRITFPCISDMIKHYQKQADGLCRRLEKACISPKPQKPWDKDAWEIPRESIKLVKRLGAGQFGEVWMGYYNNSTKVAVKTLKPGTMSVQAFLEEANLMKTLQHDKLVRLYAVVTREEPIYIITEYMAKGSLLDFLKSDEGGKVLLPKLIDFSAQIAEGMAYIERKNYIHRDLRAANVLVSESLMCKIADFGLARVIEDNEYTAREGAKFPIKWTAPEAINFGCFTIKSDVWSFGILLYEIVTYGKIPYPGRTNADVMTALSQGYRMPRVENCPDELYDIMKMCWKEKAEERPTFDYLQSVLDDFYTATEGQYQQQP

IC50 [1]	IC50 [2]	IC50 [3]	IC50 [4]	SMILES
			> 33.8 µM	N=c1oc2cc(O)ccc2cc1C(=O)Nc1cccc(O)c1
	> 67.5 µM			N=c1oc2c(O)cccc2cc1C(=O)Nc1ccc(O)cc1
			> 33.8 µM	N=c1oc2ccc(O)cc2cc1C(=O)Nc1cccc(O)c1
	> 64 µM			N=c1oc2c(O)c(O)ccc2cc1C(=O)Nc1cccc(O)c1
64.5 µM	9.67 µM			N=c1oc2c(O)cccc2cc1C(=O)Nc1cccc(CO)c1
> 67.5 µM	> 67.5 µM	> 33.8 µM		N=c1oc2c(O)cccc2cc1C(=O)Nc1ccccc1O
< 33.8 µM				N=c1oc2c(O)cccc2cc1C(=O)Nc1cccc(O)c1

The remaining lines, values behind:

SMILES	IC50 [1]	IC50 [2]	IC50 [3]	IC50 [4]
N=c1oc2c(O)c(O)ccc2cc1C(=O)Nc1ccccc1CO	> 61.3 µM	> 61.3 µM		
COc1ccc2cc(C(=O)Nc3ccc(O)cc3)c(=N)oc2c1			> 32.2 µM	> 32.2 µM
N=c1oc2cc(O)ccc2cc1C(=O)Nc1ccc(O)cc1				> 33.8 µM
N=c1oc2cc(O)cc(O)c2cc1C(=O)Nc1ccccc1O	> 16 µM			
N=c1oc2ccccc2cc1C(=O)Nc1ccccc1O			> 71.4 µM	
N=c1oc2c(O)c(O)ccc2cc1C(=O)Nc1ccc(O)cc1	> 64 µM	> 64 µM		
N=c1oc2c(O)c(O)ccc2cc1C(=O)Nc1ccccc1O	> 64 µM	> 64 µM		
N=c1oc2c(O)c(O)ccc2cc1C(=O)Nc1ccccc1	> 67.5 µM	> 67.5 µM	> 67.5 µM	> 67.5 µM
N=c1oc2ccc(O)cc2cc1C(=O)Nc1ccc(O)cc1				> 33.8 µM
N=c1oc2c(O)c(O)ccc2cc1C(=O)Nc1cccc(CO)c1		> 61.3 µM		> 61.3 µM
N=c1oc2ccccc2cc1C(=O)Nc1ccc(O)cc1			> 71.4 µM	
